According to PubChem BioAssay AID328 (DTP/NCI, 2004):
Where “and” joins values, the source holds several entries; their conditions need not be identical. Equal values may be shown once. Toxic doses and inconclusive results are not listed.

Tested on: BDF1 mice, P388 leukemia ip, median survival T/C
Assay: NCI In Vivo Anticancer Drug Screen. Data for tumor model P388 Leukemia (intraperitoneal) in B6D2F1 (BDF1) mice
Conditions: endpoint: median survival time, higher = longer survival
Outline: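 T/C = treated-group survival ÷ vehicle-control survival; tumour transplanted into mice before dosing.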

[1] = dose: 25.0 mg/kg/injection, schedule: Q04DX003 (ip), vehicle: saline
[2] = dose: 50.0 mg/kg/injection, schedule: Q04DX003 (ip), vehicle: saline
[3] = dose: 100.0 mg/kg/injection, schedule: Q04DX003 (ip), vehicle: saline
[4] = dose: 25.0 mg/kg/injection, schedule: Q01DX009 (ip), vehicle: saline with Tween-80
[5] = dose: 50.0 mg/kg/injection, schedule: Q01DX009 (ip), vehicle: saline with Tween-80
[6] = dose: 25.0 mg/kg/injection, schedule: Q01DX009 (ip), vehicle: Klucel (hydroxypropylcellulose) (HPC)
[7] = dose: 25.0 mg/kg/injection, schedule: Q01DX009 (ip), vehicle: saline
[8] = dose: 100.0 mg/kg/injection, schedule: Q01DX009 (ip), vehicle: saline
[9] = dose: 100.0 mg/kg/injection, schedule: Q04DX003 (ip), vehicle: saline with Tween-80
[10] = dose: 200.0 mg/kg/injection, schedule: Q04DX003 (ip), vehicle: saline with Tween-80
[11] = dose: 400.0 mg/kg/injection, schedule: Q04DX003 (ip), vehicle: saline with Tween-80

COCCCN=C(N)c1ccc(NC(=O)c2ccc(C(=O)Nc3ccc(C(N)=NCCCOC)cc3)cc2)cc1
T/C (dose: 0.22 mg/kg/injection, schedule: Q01DX009 (ip), vehicle: saline with Tween-80): 120 % of control
T/C (dose: 0.5 mg/kg/injection, schedule: Q01DX009 (ip), vehicle: saline with Tween-80): 116 % of control
T/C (dose: 0.66 mg/kg/injection, schedule: Q01DX009 (ip), vehicle: saline with Tween-80): 150 % of control
T/C (dose: 1.0 mg/kg/injection, schedule: Q01DX009 (ip), vehicle: saline with Tween-80): 156 % of control
T/C (dose: 1.5 mg/kg/injection, schedule: Q01DX009 (ip), vehicle: saline with Tween-80): 176 % of control
T/C (dose: 1.78 mg/kg/injection, schedule: Q04DX003 (ip), vehicle: saline with Tween-80): 118 % of control
T/C (dose: 2.25 mg/kg/injection, schedule: Q01DX009 (ip), vehicle: saline with Tween-80): 194 % of control
T/C (dose: 3.75 mg/kg/injection, schedule: Q01DX009 (ip), vehicle: saline with Tween-80): 231 % of control
T/C (dose: 4.0 mg/kg/injection, schedule: Q04DX003 (ip), vehicle: saline with Tween-80): 122 % of control
T/C (dose: 7.5 mg/kg/injection, schedule: Q01DX009 (ip), vehicle: saline with Tween-80): 113 % of control
T/C (dose: 15.0 mg/kg/injection, schedule: Q01DX009 (ip), vehicle: saline with Tween-80): 90 % of control
T/C (dose: 15.0 mg/kg/injection, schedule: Q04DX003 (ip), vehicle: saline with Tween-80): 159 % of control

COc1ccc2c3c1OC1C(Oc4nnnn4-c4ccccc4)C=CC4C(C2)N(C)CCC341 (centres undefined)
T/C (dose: 12.5 mg/kg/injection, schedule: Q04DX003 (ip), vehicle: saline): 105 % of control
T/C [1]: 113 % of control
T/C [2]: 99 % of control
T/C [3]: 103 % of control
T/C (dose: 200.0 mg/kg/injection, schedule: Q04DX003 (ip), vehicle: saline): 103 % of control
T/C (dose: 400.0 mg/kg/injection, schedule: Q04DX003 (ip), vehicle: saline): 99 % of control

CC(=O)C/C(C)=N/NC(=O)c1ccncc1
T/C (dose: 150.0 mg/kg/injection, schedule: Q01DX009 (ip), vehicle: saline with Tween-80): 90 % of control

Cc1ccc(N2C(=O)C=CC2=O)cc1
T/C (dose: 5.0 mg/kg/injection, schedule: Q01DX009 (ip), vehicle: saline sonified): 100 % of control
T/C (dose: 10.0 mg/kg/injection, schedule: Q01DX009 (ip), vehicle: saline sonified): 119 % of control
T/C (dose: 20.0 mg/kg/injection, schedule: Q01DX009 (ip), vehicle: saline sonified): 100 % of control

Nc1ccc(S(=O)(=O)N/N=C/c2ccccc2Cl)cc1
T/C (dose: 12.5 mg/kg/injection, schedule: Q01DX009 (ip), vehicle: saline with Tween-80): 96 % of control
T/C [4]: 96 % of control
T/C [5]: 92 % of control

CC(=O)NC(CCCCNC(=O)OCc1ccccc1)C(=O)O (centres undefined)
T/C (dose: 50.0 mg/kg/injection, schedule: Q01DX005 (ip), vehicle: saline with Tween-80): 90 % of control
T/C (dose: 100.0 mg/kg/injection, schedule: Q01DX005 (ip), vehicle: saline with Tween-80): 93 % of control
T/C (dose: 200.0 mg/kg/injection, schedule: Q01DX005 (ip), vehicle: saline with Tween-80): 89 % of control

OC(CNc1ccc(Cl)c(Cl)c1)COc1ccc(Cl)cc1Cl (centres undefined)
T/C [5]: 101 % of control
T/C (dose: 100.0 mg/kg/injection, schedule: Q01DX009 (ip), vehicle: saline with Tween-80): 101 % of control
T/C (dose: 200.0 mg/kg/injection, schedule: Q01DX009 (ip), vehicle: saline with Tween-80): 104 % of control

O=C1C(Cl)=C(Cl)C(=O)c2ccccc21
T/C (dose: 6.25 mg/kg/injection, schedule: Q01DX009 (ip), vehicle: Klucel (hydroxypropylcellulose) (HPC)): 115 % of control
T/C (dose: 12.5 mg/kg/injection, schedule: Q01DX009 (ip), vehicle: Klucel (hydroxypropylcellulose) (HPC)): 115 % of control
T/C [6]: 112 % of control

COc1ccc(S(=O)(=O)Nc2c([N+](=O)[O-])cc([N+](=O)[O-])c3ccccc23)cc1
T/C [4]: 102 % of control
T/C [5]: 100 % of control

C=C(NC(C)=O)C(=O)O
T/C (dose: 20.0 mg/kg/injection, schedule: Q04DX003 (ip), vehicle: Klucel (hydroxypropylcellulose) (HPC)): 108 % of control
T/C [6]: 104 % of control
T/C (dose: 40.0 mg/kg/injection, schedule: Q04DX003 (ip), vehicle: Klucel (hydroxypropylcellulose) (HPC)): 108 % of control
T/C (dose: 50.0 mg/kg/injection, schedule: Q01DX009 (ip), vehicle: Klucel (hydroxypropylcellulose) (HPC)): 104 % of control
T/C (dose: 80.0 mg/kg/injection, schedule: Q04DX003 (ip), vehicle: Klucel (hydroxypropylcellulose) (HPC)): 86 % of control
T/C (dose: 100.0 mg/kg/injection, schedule: Q01DX009 (ip), vehicle: Klucel (hydroxypropylcellulose) (HPC)): 90 % of control
T/C (dose: 100.0 mg/kg/injection, schedule: Q04DX003 (ip), vehicle: Klucel (hydroxypropylcellulose) (HPC)): 95 % of control

NC(N)=NC(N)=Nc1cnccn1
T/C [7]: 110 % of control
T/C [1]: 100 % of control
T/C (dose: 50.0 mg/kg/injection, schedule: Q01DX009 (ip), vehicle: saline): 120 % of control
T/C [2]: 100 % of control
T/C [8]: 120 % of control
T/C [3]: 95 % of control

S=c1c2[nH]cnc2ncn1CCSC1=NC=NC2=NC=NC21 (centres undefined)
T/C [9]: 100 % of control
T/C [10]: 95 % of control
T/C [11]: 109 % of control

CC(=O)C[P+](c1ccccc1)(c1ccccc1)c1ccccc1
T/C (dose: 100.0 mg/kg/injection, schedule: Q01DX001 (ip), vehicle: saline): 109 % of control

Nc1ccc(O)c2ncccc12
T/C (dose: 7.5 mg/kg/injection, schedule: Q01DX010 (ip), vehicle: saline): 115 % of control
T/C (dose: 15.0 mg/kg/injection, schedule: Q01DX010 (ip), vehicle: saline): 110 % of control

CCCCCCCCCCCCCCCCCC[n+]1cccc(C2CCCN2C)c1 (centres undefined) (tested in a mixture with another compound)
T/C [6]: 119 % of control

CCCCN(CCCC)P(=O)(N1CC1)N1CC1
T/C (dose: 16.5 mg/kg/injection, schedule: Q01DX009 (ip), vehicle: saline): 250 % of control
T/C [7]: 118 % of control
T/C (dose: 37.5 mg/kg/injection, schedule: Q01DX009 (ip), vehicle: saline): 113 % of control

OC1OCCOC1O (centres undefined)
T/C (dose: 17.8 mg/kg/injection, schedule: Q01DX009 (ip), vehicle: saline): 101 % of control
T/C (dose: 26.6 mg/kg/injection, schedule: Q01DX009 (ip), vehicle: saline): 112 % of control
T/C (dose: 40.0 mg/kg/injection, schedule: Q01DX009 (ip), vehicle: saline): 110 % of control
T/C (dose: 65.0 mg/kg/injection, schedule: Q01DX009 (ip), vehicle: saline): 121 % of control
T/C [8]: 166 % of control
T/C (dose: 150.0 mg/kg/injection, schedule: Q01DX009 (ip), vehicle: saline): 169 % of control
T/C (dose: 178.0 mg/kg/injection, schedule: Q01DX009 (ip), vehicle: saline): 166 % of control
T/C (dose: 200.0 mg/kg/injection, schedule: Q01DX009 (ip), vehicle: saline): 166 % of control
T/C (dose: 266.0 mg/kg/injection, schedule: Q01DX009 (ip), vehicle: saline): 165 % of control
T/C (dose: 400.0 mg/kg/injection, schedule: Q01DX009 (ip), vehicle: saline): 157 % of control and 161 % of control and 168 % of control

C[n+]1c(-c2ccc(Cl)cc2Cl)c2cc(N)ccc2c2ccccc21
T/C (dose: 0.09 mg/kg/injection, schedule: Q01DX009 (ip), vehicle: water): 98 % of control
T/C (dose: 0.19 mg/kg/injection, schedule: Q01DX009 (ip), vehicle: water): 90 % of control
T/C (dose: 0.39 mg/kg/injection, schedule: Q01DX009 (ip), vehicle: water): 98 % of control
T/C (dose: 0.78 mg/kg/injection, schedule: Q01DX009 (ip), vehicle: water): 98 % of control
T/C (dose: 1.56 mg/kg/injection, schedule: Q01DX009 (ip), vehicle: water): 102 % of control and 120 % of control
T/C (dose: 3.12 mg/kg/injection, schedule: Q01DX009 (ip), vehicle: water): 98 % of control and 112 % of control

CN1CC(C(=O)N2CCCCC2)C=C2c3cccc4[nH]cc(c34)CC21 (centres undefined)
T/C (dose: 3.12 mg/kg/injection, schedule: Q01DX009 (ip), vehicle: saline): 95 % of control
T/C (dose: 6.25 mg/kg/injection, schedule: Q01DX009 (ip), vehicle: saline): 113 % of control
T/C (dose: 12.5 mg/kg/injection, schedule: Q01DX009 (ip), vehicle: saline): 104 % of control
T/C [1]: 116 % of control
T/C [2]: 87 % of control

CC(=O)n1cc(C2CC(=O)OC3=C2CC(=O)C(C)(C)C3)c2ccccc21 (centres undefined)
T/C (dose: 50.0 mg/kg/injection, schedule: Q04DX003 (ip), vehicle: saline with Tween-80): 100 % of control
T/C [9]: 88 % of control and 95 % of control
T/C [10]: 94 % of control and 95 % of control
T/C [11]: 94 % of control and 96 % of control
